Where “and” joins values, the source holds several entries; their conditions need not be identical. Equal entries are not always repeated.
Assays:
Type in all cases: functional, Homo sapiens
TERT-RPE1 = assay: (§1) Here: values are normalized to the negative (DMSO; defined as 0% autophagy induction) and positive (250nM Torin1; mTOR inhibitor; defined as maximal inducer of autophagy = 100%) control compounds and represented as % of autophagy induction. […] The impact of autophagy induction on cells is complex and depends on the affected target. As such, the magnitude of a phenotype may not be equally mirrored in the %-value of autophagy induction and vice versa. The dynamics of the induction may indicate the mode of activation: e.g. activation via phosphorylation or a signaling cascade may occur fast, while activation via transcription factors may take considerably longer. […] Of note, treatment concentrations may be sub-optimal for specific compounds, leading to false negative annotations.; details: Culturing Media DMEM/F12 (1:1), 1 % Penicillin/Streptomycin, 10% Fetal bovin serum Add-On: No, Screening Media Control DMEM/F12 (1:1), Screening Media Samples DMEM/F12 (1:1)
U2OS [1] = assay: as §1; details: Culturing Media DMEM, 1 % Penicillin/Streptomycin, 10% Fetal bovin serum Add-On: No, Screening Media Control DMEM, Screening Media Samples DMEM
U2OS [2] = assay: as §1; details: Culturing Media DMEM, 1 % Penicillin/Streptomycin, 10% Fetal bovin serum Add-On: No, Screening Media Control DMEM, Screening Media Samples DMEM; remark: listed apart in the source
[3] = Compound Concentration 0.5 uM, Timepoint 12 hours
[4] = Compound Concentration 0.5 uM, Timepoint 24 hours
[5] = Compound Concentration 0.5 uM, Timepoint 36 hours
[6] = Compound Concentration 0.5 uM, Timepoint 60 hours
[7] = Compound Concentration 2 uM, Timepoint 12 hours
[8] = Compound Concentration 2 uM, Timepoint 24 hours
[9] = Compound Concentration 2 uM, Timepoint 36 hours
[10] = Compound Concentration 2 uM, Timepoint 60 hours
[11] = Compound Concentration 10 uM, Timepoint 12 hours
[12] = Compound Concentration 10 uM, Timepoint 24 hours
[13] = Compound Concentration 10 uM, Timepoint 36 hours
[14] = Compound Concentration 10 uM, Timepoint 60 hours

SMILES	autophagy induction (U2OS [1]; [3]) [%]	autophagy induction (U2OS [1]; [4]) [%]	autophagy induction (U2OS [1]; [5]) [%]	autophagy induction (U2OS [1]; [6]) [%]	autophagy induction (U2OS [1]; [7]) [%]	autophagy induction (U2OS [1]; [8]) [%]	autophagy induction (U2OS [1]; [9]) [%]	autophagy induction (U2OS [1]; [10]) [%]	autophagy induction (U2OS [1]; [11]) [%]	autophagy induction (U2OS [1]; [12]) [%]	autophagy induction (U2OS [1]; [13]) [%]	autophagy induction (U2OS [1]; [14]) [%]	autophagy induction (U2OS [2]; [3]) [%]	autophagy induction (U2OS [2]; [4]) [%]	autophagy induction (U2OS [2]; [5]) [%]	autophagy induction (U2OS [2]; [6]) [%]	autophagy induction (U2OS [2]; [7]) [%]	autophagy induction (U2OS [2]; [8]) [%]	autophagy induction (U2OS [2]; [9]) [%]	autophagy induction (U2OS [2]; [10]) [%]	other results
CC1=C2C[C@H]3[C@@H](CC=C4C[C@@H](O)CC[C@@]43C)[C@@H]2CC[C@]12O[C@@H]1C[C@H](C)CN[C@H]1[C@H]2C [CYCLOPAMINE]	-10.7714	-6.065	-46.3072	-1.6767	-23.8167	-9.227	-62.0777	-2.064	-31.4833	-9.078	-61.7295	-4.044	-5.379	-12.5809	-11.7869	-7.179	-12.942	-16.2845	-11.3886	-12.7281	autophagy induction (TERT-RPE1; Compound Concentration 0.5 uM, Timepoint 12 hours, 12 h, 0.5 µM): -1.95% and 0.112%; autophagy induction (TERT-RPE1; Compound Concentration 0.5 uM, Timepoint 24 hours, 24 h, 0.5 µM): -5.579% and 2.177%; autophagy induction (TERT-RPE1; Compound Concentration 0.5 uM, Timepoint 36 hours, 36 h, 0.5 µM): -7.952% and 1.185%; autophagy induction (TERT-RPE1; Compound Concentration 0.5 uM, Timepoint 60 hours, 60 h, 0.5 µM): -10.1078% and 0.5911%; autophagy induction (TERT-RPE1; Compound Concentration 2 uM, Timepoint 12 hours, 12 h, 2 µM): -0.5068% and 11.5959%; autophagy induction (TERT-RPE1; Compound Concentration 2 uM, Timepoint 24 hours, 24 h, 2 µM): -0.6761% and 8.252%; autophagy induction (TERT-RPE1; Compound Concentration 2 uM, Timepoint 36 hours, 36 h, 2 µM): -1.445% and 8.279%; autophagy induction (TERT-RPE1; Compound Concentration 2 uM, Timepoint 60 hours, 60 h, 2 µM): -2.949% and 8.955%; autophagy induction (TERT-RPE1; Compound Concentration 10 uM, Timepoint 12 hours, 12 h, 10 µM): 18.7284% and 8.103%; autophagy induction (TERT-RPE1; Compound Concentration 10 uM, Timepoint 24 hours, 24 h, 10 µM): 21.8058% and 8.836%; autophagy induction (TERT-RPE1; Compound Concentration 10 uM, Timepoint 36 hours, 36 h, 10 µM): 27.6829% and 10.6231%; autophagy induction (TERT-RPE1; Compound Concentration 10 uM, Timepoint 60 hours, 60 h, 10 µM): 29.1115% and 13.2783%; autophagy induction (U2OS [2]; [11]): -9.168%; autophagy induction (U2OS [2]; [12]): -9.072%; autophagy induction (U2OS [2]; [13]): -3.104%; autophagy induction (U2OS [2]; [14]): 2.518%
CC(C)C[C@H](NC(=O)N1CCCCCC1)C(=O)N[C@H](Cc1cn(C)c2ccccc12)C(=O)N[C@H](Cc1ccccn1)C(=O)O	0.2891	0.184	-1.273	0.7204	2.596	1.655	-0.3512	-0.2043	5.448	0.3648	-0.3169	1.561	4.132	4.485	3.039	-0.6751	3.762	6.744	4.273	0.0386	autophagy induction (TERT-RPE1; [3]): -9.746%; autophagy induction (TERT-RPE1; [4]): -10.9738%; autophagy induction (TERT-RPE1; [5]): -11.345%; autophagy induction (TERT-RPE1; [6]): -17.0217%; autophagy induction (TERT-RPE1; [7]): -8.2266%; autophagy induction (TERT-RPE1; [8]): -8.649%; autophagy induction (TERT-RPE1; [9]): -10.3216%; autophagy induction (TERT-RPE1; [10]): -11.9295%; autophagy induction (TERT-RPE1; [11]): -4.458%; autophagy induction (TERT-RPE1; [12]): -5.829%; autophagy induction (TERT-RPE1; [13]): -9.562%; autophagy induction (TERT-RPE1; [14]): -13.6367%; autophagy induction (U2OS [2]; [11]): 4.084%; autophagy induction (U2OS [2]; [12]): 1.596%; autophagy induction (U2OS [2]; [13]): 3.219%; autophagy induction (U2OS [2]; [14]): 5.8133%

Reference: ChEMBL document CHEMBL5724696, “Autophagy assay results for EUbOPEN Chemogenomics Library” (2024)
